Where two headings read alike, the source gives them in different places.
Tests used:
DU145 cells [1] = assay: Soft agar colony formation assay; format: cell-based; details: Homo sapiens, DU-145, 504 h, about three weeks, read-out: EC50 for inhibition of soft agar colony formation
Experimental: Soft agar colony formation assays were performed to measure the long-term survival and anchorage-independent growth capacity of tumor cells. DU145 cells were seeded in 0.7% nutrient agar with the test compound on an underlay of 1.4% nutrient agar in a six well plate. On the day following cell seeding, liquid cell culture medium containing the compound was added to the well to prevent the agar from drying out and was changed regularly till the completion of the experiment. The cells were allowed to form colonies for a period of about three weeks following which the colonies were stained with 0.005% solution of crystal violet in 25% methanol. The colonies were counted under a dissecting microscope.

Factor Xa = molecular target: T1, Factor Xa (Homo sapiens, UniProt P00742); assay: Factor Xa enzymatic assay (selectivity screening); format: biochemical
T1 construct: uPA, Factor Xa, thrombin, plasmin and trypsin (Sigma, USA); purchased Sigma, USA
T1 sequence (P00742 235-488 limits assumed): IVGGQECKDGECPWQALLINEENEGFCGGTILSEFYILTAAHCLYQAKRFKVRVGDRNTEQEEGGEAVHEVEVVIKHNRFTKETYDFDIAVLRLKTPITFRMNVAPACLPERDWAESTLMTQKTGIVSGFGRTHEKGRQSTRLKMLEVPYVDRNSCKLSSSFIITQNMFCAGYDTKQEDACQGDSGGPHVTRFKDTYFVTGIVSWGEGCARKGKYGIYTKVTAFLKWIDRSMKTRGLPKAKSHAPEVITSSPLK
T1 sequence (P00742 41-179 partner limits assumed): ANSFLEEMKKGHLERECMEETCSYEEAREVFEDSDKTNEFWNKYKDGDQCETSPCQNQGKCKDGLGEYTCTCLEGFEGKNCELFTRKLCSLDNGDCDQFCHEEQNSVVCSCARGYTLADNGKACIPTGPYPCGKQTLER
Description: (§1) Purified recombinant matriptase was used in a fluorescence-based screening assay using Gln-Ala-Arg peptide as a substrate. In this assay the cleavage of AMC from Boc-Gln-Ala-Arg-7-amido-4 methylcoumarin hydrochloride (Boc-Gln-Ala-Arg-AMC) (Sigma, USA) was monitored by measuring the increase in fluorescence intensity of AMC released upon proteolytic cleavage at 480 nm (kex=360 nm). Similarly, enzymatic assays in fluorimetric or colorimetric format for uPA, Factor Xa, thrombin, plasmin and trypsin (Sigma, USA) were established using substrates pyroGlu-Gly-Arg-pNA.HCl, Boc-Gln-Ala-Arg-AMC, CH3OCO-D-CHA-Gly-Arg-PNA.AcoH, Pyro Glu-Phe-Lys—pNA.HCl and Boc-Gln-Ala-Arg-AMC, respectively.

[2] = Maximum tolerated dose (MTD) study; format: in vivo; details: 14 days, male athymic mice
Experimental: An MTD study was performed for the compound of Example 27. […] The compound was administered at 1, 3, 10 and 30 mg/kg once daily in male athymic mice via subcutaneous route in 5 mice each. […]

DU145 tumors = assay: DU145 xenograft model; format: in vivo; details: for Tumor growth inhibition (%): DU145 model, 15 days
Experimental: (§2) In order to determine the in vivo efficacy, xenograft models were established by injecting 5×10^6 DU145 cells with matrigel or 5×10^6 PC3 cells without matrigel subcutaneously. Once the tumors reached palpable size (˜80 mm3), compound of Example 27 was administered in a vehicle comprising of 2% ethanol, 10% hydroxyl cyclodextrin in 0.9% saline. The compound of Example 27 was dosed subcutaneously to animals with DU145 tumors at 1.5, 5 and 15 mg/kg for 15 days. In the PC3 xenograft study, compound of Example 27 was administered at 0.5, 1.5, 5.0 and 15.0 mg/kg daily.

thrombin = molecular target: T2, thrombin (Homo sapiens, UniProt P00734); assay: Thrombin enzymatic assay (selectivity screening); format: biochemical
T2 construct: uPA, Factor Xa, thrombin, plasmin and trypsin (Sigma, USA); purchased Sigma, USA
Description: as §1

DU145 cells [3] = assay: Cytotoxicity, Calcein AM assay, DU145; format: cell-based; details: Homo sapiens, DU-145, 96 h, four days of incubation, read-out: Cell survival at 10 μM (%)
Experimental: Cytotoxicity of the compounds was tested in cell lines or primary cells using Calcein AM assay. This assay measures cell viability by quantitation of cleaved fluorescent product of a cell permeable substrate that is retained in the cytoplasm of cells with uncompromised cytoplasmic membrane integrity. The cells were seeded into 96-well plate and allowed to adhere for a day followed by addition of compound at several different concentrations. After four days of incubation with the compound, media was removed from the cells followed by addition of PBS and addition of Calcein AM reagent at 1 μM final concentration. The cells were then allowed to incubate at 37° C. for half an hour followed by reading on the fluorimeter. Percent viability was calculated based on fluorescence value obtained at 485/520 nm with cut off at 495 nm.

[4] = molecular target: T3, Purified recombinant matriptase (Homo sapiens, UniProt Q9Y5Y6); assay: Matriptase fluorescence-based enzymatic assay (Boc-Gln-Ala-Arg-AMC cleavage); format: biochemical
T3 sequence (Q9Y5Y6 1-855): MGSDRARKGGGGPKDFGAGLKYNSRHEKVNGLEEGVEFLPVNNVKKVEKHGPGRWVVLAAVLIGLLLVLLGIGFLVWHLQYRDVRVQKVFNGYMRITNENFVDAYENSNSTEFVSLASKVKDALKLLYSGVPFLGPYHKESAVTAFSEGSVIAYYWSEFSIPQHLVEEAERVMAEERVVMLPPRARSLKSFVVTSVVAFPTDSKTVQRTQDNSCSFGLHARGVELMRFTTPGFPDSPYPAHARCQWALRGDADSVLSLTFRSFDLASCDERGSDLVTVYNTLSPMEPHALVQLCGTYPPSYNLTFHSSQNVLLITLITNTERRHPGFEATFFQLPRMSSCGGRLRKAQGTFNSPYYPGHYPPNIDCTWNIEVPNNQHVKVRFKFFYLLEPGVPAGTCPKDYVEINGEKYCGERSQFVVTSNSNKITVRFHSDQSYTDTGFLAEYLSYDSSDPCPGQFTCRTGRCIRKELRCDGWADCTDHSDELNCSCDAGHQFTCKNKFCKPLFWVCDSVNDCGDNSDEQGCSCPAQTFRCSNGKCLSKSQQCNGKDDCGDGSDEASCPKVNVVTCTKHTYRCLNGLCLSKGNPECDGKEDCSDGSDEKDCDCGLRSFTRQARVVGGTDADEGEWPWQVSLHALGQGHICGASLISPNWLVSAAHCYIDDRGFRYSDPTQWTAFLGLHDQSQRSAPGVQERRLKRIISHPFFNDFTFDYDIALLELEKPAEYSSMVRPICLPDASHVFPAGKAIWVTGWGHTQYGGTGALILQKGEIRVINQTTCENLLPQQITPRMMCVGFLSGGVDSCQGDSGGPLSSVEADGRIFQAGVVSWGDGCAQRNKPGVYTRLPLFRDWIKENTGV
Description: as §1

DU145 cells [5] = assay: Migration assay in transwell chambers; format: cell-based; details: Homo sapiens, DU-145, 24 hours
Experimental: Migration assays were performed to determine the effect of matriptase inhibitors on cell motility. Cells were seeded with 10 μM test compound into transwell chambers and allowed to migrate for 24 hours using a combination of 10% FBS and 5 μg/ml fibronectin as chemoattractant.

DU145 cells [6] = assay: Cell invasion assay (matrigel transwell); format: cell-based; details: Homo sapiens, DU-145, 48 hours
Experimental: Cell invasion assays were done for quantitating the degree to which invasive cells penetrate a barrier essentially as in migration assay but with the use of matrigel consisting of basement membrane components in the transwell inserts and incubating for 48 hours. The barrier used was matrigel. This was followed by fixing and staining of the transwell insert with 0.5% crystal violet in 25% methanol in order to visualize cells migrated.

PC3 cells = assay: PC3 xenograft model; format: in vivo; details: for Tumor growth inhibition (%): PC3 model, 21 days
Experimental: as §2

plasmin = molecular target: T4, plasmin (Homo sapiens, UniProt P00747); assay: Plasmin enzymatic assay (selectivity screening); format: biochemical
T4 construct: uPA, Factor Xa, thrombin, plasmin and trypsin (Sigma, USA); purchased Sigma, USA
T4 sequence (P00747 581-810 limits assumed, species assumed): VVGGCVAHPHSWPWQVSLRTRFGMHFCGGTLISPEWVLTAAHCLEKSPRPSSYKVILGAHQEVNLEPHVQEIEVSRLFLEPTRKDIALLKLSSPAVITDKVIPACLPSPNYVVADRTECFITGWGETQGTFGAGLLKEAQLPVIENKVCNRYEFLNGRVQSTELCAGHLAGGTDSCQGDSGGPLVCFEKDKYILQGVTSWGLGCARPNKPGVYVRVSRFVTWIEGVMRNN
T4 sequence (P00747 97-580 partner limits assumed, species assumed): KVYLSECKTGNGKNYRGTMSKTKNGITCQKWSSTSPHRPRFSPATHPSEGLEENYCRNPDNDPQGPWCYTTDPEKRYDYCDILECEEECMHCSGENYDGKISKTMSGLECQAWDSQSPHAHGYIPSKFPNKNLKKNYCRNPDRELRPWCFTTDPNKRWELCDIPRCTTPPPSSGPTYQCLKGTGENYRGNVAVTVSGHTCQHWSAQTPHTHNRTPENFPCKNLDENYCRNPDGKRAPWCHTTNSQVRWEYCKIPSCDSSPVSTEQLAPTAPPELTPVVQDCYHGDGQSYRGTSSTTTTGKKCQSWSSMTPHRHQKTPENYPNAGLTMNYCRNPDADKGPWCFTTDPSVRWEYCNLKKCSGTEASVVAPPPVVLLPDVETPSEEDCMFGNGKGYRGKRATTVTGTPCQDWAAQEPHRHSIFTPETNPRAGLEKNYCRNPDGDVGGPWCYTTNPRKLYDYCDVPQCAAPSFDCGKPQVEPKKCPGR
Description: as §1

trypsin = assay: Trypsin enzymatic assay (selectivity screening); format: biochemical; details: % Inhibition at 5 μM
Description: as §1

uPA = molecular target: T5, uPA (Homo sapiens, UniProt P00749); assay: uPA enzymatic assay (selectivity screening); format: biochemical
T5 construct: purchased Sigma, USA
Description: as §1

[7] = 1, 3, 10 and 30 mg/kg once daily subcutaneous

[H]/N=C(\N)c1ccc(Oc2cc(Oc3ccc(/C(N)=N/[H])cc3)cc(C(=O)NC3CCC(N)CC3)c2)cc1 (stereo not drawn) [Example 27, N-(4-Amino-cyclohexyl)-3,5-bis-(4-carbamimidoyl-phenoxy)-benzamide]
EC50 (DU145 cells [1]): 200 nM | inhibition at 5 µM (Factor Xa): 83% | Body weight reduction [2, 7]: less than 2% | Clinical signs [2, 7]: no gross changes in clinical signs | Mortality [2, 7]: did not show any mortality | Tolerability ([2]; doses up to 30 mg/kg once daily subcutaneous): well tolerated | Tumor growth inhibition (%) (DU145 tumors; 1.5 mg/kg subcutaneously): 61.2% | Tumor growth inhibition (%) (DU145 tumors; 5 mg/kg subcutaneously): 84.5% | Tumor growth inhibition (%) (DU145 tumors; 15 mg/kg subcutaneously): 75% | Reduction in tumor volume (in words) (DU145 tumors; DU145 xenograft study): significant reduction in tumor volume | inhibition at 5 µM (thrombin): 41% | viability at 10 µM (DU145 cells [3]): 100% | IC50 ([4]; Table 1, read-out: Matriptase Inhibition IC50): 17 nM | IC50 ([4]; Table 2, read-out: Matriptase IC50): 17 nM | inhibition at 10 µM (DU145 cells [5]): 88% | inhibition at 10 µM (DU145 cells [6]): 79% | Tumor growth inhibition (%) (PC3 cells; 0.5 mg/kg daily): 14% | Tumor growth inhibition (%) (PC3 cells; 1.5 mg/kg daily): 44% | Tumor growth inhibition (%) (PC3 cells; 5 mg/kg daily): 65% | Tumor growth inhibition (%) (PC3 cells; 15 mg/kg daily): 62% | Inhibition of tumor growth (in words) (PC3 cells; PC3 xenograft study): significant and dose-dependent inhibition of tumor growth | inhibition at 5 µM (plasmin): 33% | Trypsin Inhibition (%) (trypsin): 61% | inhibition at 5 µM (uPA): 14%

Source: patent US8722930B2, “Protease inhibitors” (Orion Corporation, priority 2009, dated 2014)
